molecular target: T1, soluble epoxide hydrolase (sEH) (Homo sapiens, UniProt P34913); test: in vitro biochemical activity test, sEH enzyme inhibition with EET substrate (LC-MS); conditions: 90 min pre-incubation at room temperature, 60 min reaction
T1 sequence (P34913 1-555): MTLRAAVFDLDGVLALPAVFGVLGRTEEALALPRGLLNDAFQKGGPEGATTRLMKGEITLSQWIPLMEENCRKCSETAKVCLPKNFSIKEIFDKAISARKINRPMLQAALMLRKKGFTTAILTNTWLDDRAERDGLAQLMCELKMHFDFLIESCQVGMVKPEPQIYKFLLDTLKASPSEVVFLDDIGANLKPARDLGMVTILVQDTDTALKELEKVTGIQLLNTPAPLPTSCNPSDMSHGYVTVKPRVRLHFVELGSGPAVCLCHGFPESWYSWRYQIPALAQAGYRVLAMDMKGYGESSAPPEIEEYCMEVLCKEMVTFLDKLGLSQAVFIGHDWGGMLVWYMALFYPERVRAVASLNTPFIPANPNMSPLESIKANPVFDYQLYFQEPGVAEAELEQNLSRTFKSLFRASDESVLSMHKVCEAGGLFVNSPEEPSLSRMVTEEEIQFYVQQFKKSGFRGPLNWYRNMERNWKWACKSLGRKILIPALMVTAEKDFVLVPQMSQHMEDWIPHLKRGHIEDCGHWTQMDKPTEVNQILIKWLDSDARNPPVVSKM
Protocol: This example relates to the relationship between the structure and activity of (hetero)aryl imidazole compounds containing an aromatic substituent. Specifically, the biochemical activity of the (hetero)aryl imidazole compounds containing an aromatic substituent described in Example 1 as sEH enzyme inhibitors was evaluated by in vitro activity test experiments.
The experimental procedures for evaluating in vitro biochemical activity were described below.
The substrate used in the evaluation experiment was epoxyeicosatrienoic acid (EET). The solutions used in the evaluation experiments were Bis/Tris HCl 25 mM pH 7.0, Bis/Tris HCl 25 mM pH 7.0 containing 0.1 mg/mL BSA was used as buffer A, and Bis/Tris HCl 25 mM pH 7.0 containing 36.3 mM ZnSO4 was used as buffer B.
The specific steps of the evaluation experiment were as follows. 79 μL of buffer A was added to each well in a black 96-well plate and then 1 μL solution of the aromatic substituent-containing (hetero)aryl imidazole compound was added. Then, 10 μL sEH (1 μM) buffer A solution was added to the wells. After pre-incubation at room temperature for 90 min, 10 μL EET (10 μM) buffer A solution was added to trigger the reaction. After the mixture was allowed to react […] for 60 min, 15 μL buffer B and 180 μL acetonitrile were added to quench the reaction, followed by high-speed centrifugation and filtration for later use.
LC-MS was used to detect the concentration of EET in the samples. The final IC50 was calculated based on three independent experiments using Graphpad Prism software.

Point of comparison: `CC(C)n1nccc1-c1cc2nc(-c3ccc(S(=O)(=O)N(C)C)cc3)[nH]c2cc1F` [Compound 21, 4-(5-fluoro-6-(1-isopropyl-1H-pyrazol-5-yl)-1H-benzo[d]imidazol-2-yl)-N,N-dimethyl-benzenesulfonamide], IC50 0.051 nM. Against it:
- CN(C)S(=O)(=O)c1ccc(-c2nc3cc(-c4ccncc4Cl)c(F)cc3[nH]2)cc1 [Compound 1, 4-(6-(3-chloropyridin-4-yl)-5-fluoro-1H-benzo[d]imidazol-2-yl)-N,N-dimethylbenzene-sulfonamide] — 2.2-fold higher, 0.11 nM
- COc1ccc(-c2nc3cc(-c4ccncc4Cl)c(F)cc3[nH]2)cc1F [Compound 2, 6-(3-chloropyridin-4-yl)-5-fluoro-2-(3-fluoro-4-meth-oxyphenyl)-1H-benzo[d] imidazole] — 220-fold higher, 11 nM
- Cc1ccc(-c2cc3nc(-c4ccc(C(=O)N5CCC[C@@H](C(N)=O)C5)cc4)[nH]c3cc2F)c(Cl)n1 [Compound 3, (R)-1-(4-(6-(2-chloro-6-meth-ylpyridin-3-yl)-5-fluoro-1H-benzo[d]imidazol-2-yl)benzo-yl)piperidine-3-carboxamide] — 150-fold higher, 7.6 nM
- Cc1ncc(-c2cc3nc(-c4ccc(S(C)(=O)=O)cc4)[nH]c3cc2Cl)c(Cl)n1 [Compound 4, 5-chloro-6-(4-chloro-2-meth-ylpyrimid-5-yl)-2-(4-(methyl-sulfonyl)phenyl)-1H-benzo[d] imidazole] — 19-fold higher, 0.99 nM
- Cc1ncc(-c2cc3nc(-c4ccc(C(F)(F)F)cc4)[nH]c3c(F)c2F)c(C)n1 [Compound 5] — within 1.5-fold, 0.074 nM
- CNc1nc(C)ncc1-c1cc2nc(-c3ccc(C(F)(F)F)cc3)[nH]c2cc1F [Compound 7, 5-(5-fluoro-2-(4-(trifluoro-methyl)phenyl)-1H-benzo[d]imidazol-6-yl)-N,2-dimethyl-pyrimidine-4-amine] — 2.2-fold higher, 0.11 nM
- Cc1nc(N(C)C)ncc1-c1cc2nc(-c3ccc(C(F)(F)F)cc3)[nH]c2cc1F [Compound 9, 5-(5-fluoro-2-(4-(trifluoro-methyl)phenyl)-1H-benzo[d]imidazol-6-yl)-N,N,4-trimeth-ylpyrimidine-2-amine] — 2.2-fold higher, 0.11 nM
- Cc1cnccc1-c1cc2nc(-c3ccc(C(F)F)cc3)[nH]c2cc1F [Compound 11, 2-(4-(difluoromethyl)phenyl)-5-fluoro-6-(3-methylpyridin-4-yl)-1H-benzo[d]imidazole] — 2.7-fold higher, 0.14 nM
- Cc1ccc(-c2cc3nc(-c4ccc(C(F)(F)F)cc4)[nH]c3cc2F)c(Cl)n1 [Compound 12, 6-(2-chloro-6-methylpyridin-3-yl)-5-fluoro-2-(4-(trifluoro-methyl)phenyl)-1H-benzo[d] imidazole] — within 1.5-fold, 0.058 nM
- Cc1cc(-c2cc3nc(-c4ccc(C(F)(F)F)cc4)[nH]c3cc2F)n(C)n1 [Compound 13, 6-(1,3-dimethyl-1H-pyrazol-5-yl)-5-fluoro-2-(4-(trifluoro-methyl)phenyl)-1H-benzo[d] imidazole] — 7.8-fold higher, 0.4 nM
- Cc1ncc(-c2ccc3[nH]c(-c4ccc(C(F)(F)F)cc4)nc3c2F)cn1 [Compound 14, 7-fluoro-6-(2-methylpyrimid-5-yl)-2-(4-(trifluoromethyl)-phenyl)-1H-benzo[d]imidazole] — 18-fold higher, 0.94 nM
- Cc1ccc(-c2cc3nc(-c4ccc(C(F)(F)F)cc4)[nH]c3cc2F)cn1 [Compound 15, 5-fluoro-6-(6-methylpyridin-3-yl)-2-(4-(trifluoromethyl)-phenyl)-1H-benzo[d]imidazole] — 12-fold higher, 0.62 nM
- Fc1cc2[nH]c(-c3ccc(C(F)(F)F)cc3)nc2cc1-c1cnc(N2CCOCC2)nc1 [Compound 16, 4-(5-(5-fluoro-2-(4-(trifluoro-methyl)phenyl)-1H-benzo[d]imidazol-6-yl)pyrimidine-2-yl)morpholine] — 2.7-fold higher, 0.14 nM
- CN1CCN(c2ncc(-c3cc4nc(-c5ccc(C(F)(F)F)cc5)[nH]c4cc3F)cn2)CC1 [Compound 17, 5-fluoro-6-(2-(4-methylpiper-azine-1-yl)pyrimid-5-yl)-2-(4-(trifluoromethyl)phenyl)-1H-benzo[d]imidazole] — 94-fold higher, 4.8 nM
- CC(C)n1nccc1-c1cc2nc(-c3ccc(S(C)(=O)=O)cc3)[nH]c2cc1F [Compound 19, 5-fluoro-6-(1-isopropyl-1H-pyrazol-5-yl)-2-(4-(methyl-sulfonyl)phenyl)-1H-benzo[d] imidazole] — 19-fold higher, 0.98 nM
- CS(=O)(=O)c1ccc(-c2nc3cc(-c4cnc(N5CCOCC5)nc4)c(F)cc3[nH]2)cc1 [Compound 20, 4-(5-(5-fluoro-2-(4-(methyl-sulfonyl)phenyl)-1H-benzo[d]imidazol-6-yl)pyrimidine-2-yl)morpholine] — 43-fold higher, 2.21 nM
- Cc1nc(N)ncc1-c1cc2nc(-c3ccc(S(=O)(=O)N(C)C)cc3)[nH]c2cc1F [Compound 22, 4-(6-(2-amino-4-methylpyr-imid-5-yl)-5-fluoro-1H-benzo [d]imidazol-2-yl)-N,N-dimeth-yl-benzenesulfonamide] — 2-fold higher, 0.1 nM
- CC(=O)n1nc(C)c(-c2cc3nc(-c4ccc(C(F)(F)F)cc4)[nH]c3cc2F)c1C [Compound 23, 1-(4-(6-fluoro-2-(4-(trifluoro-methyl)phenyl)-1H-benzo[d]imidazol-5-yl)-3,5-dimethyl-1H-pyrazol-1-yl)ethan-1-one] — 5.7-fold higher, 0.29 nM
- Cc1nn(S(C)(=O)=O)c(C)c1-c1cc2nc(-c3ccc(C(F)(F)F)cc3)[nH]c2cc1F [Compound 24, 6-(3,5-dimethyl-1-(methyl-sulfonyl)-1H-pyrazo1-4-yl)-5-fluoro-2-(4-(trifluoromethyl)-phenyl)-1H-benzo[d]imidazole] — 3.9-fold higher, 0.2 nM
- CC(C)n1nccc1-c1cc2nc(-c3ccc(S(=O)(=O)N(C)C)cc3)[nH]c2c(F)c1F [Compound 25, 4-(4,5-difluoro-6-(1-isopropyl-1H-pyrazol-5-yl)-1H-benzo[d]imidazol-2-yl)-N,N-dimethyl-benzenesulfonamide] — within 1.5-fold, 0.045 nM
- Cc1nc(N2CCOCC2)ncc1-c1cc2nc(-c3ccc(S(=O)(=O)N(C)C)cc3)[nH]c2cc1F [Compound 26, 4-(5-fluoro-6-(4-methyl-2-morpholinopyrimid-5-yl)-1H-benzo[d]imidazol-2-yl)-N,N-dimethylbenzenesulfonamide] — 1.6-fold higher, 0.081 nM
- Cc1nc(N)ncc1-c1cc2nc(-c3ccc(S(=O)(=O)N(C)C)cc3)[nH]c2c(F)c1F [Compound 27, 4-(6-(2-amino-4-methylpyr-imid-5-yl)-4,5-difluoro-1H-benzo[d]imidazol-2-yl)-N,N-dimethylbenzenesulfonamide] — within 1.5-fold, 0.056 nM
- Cc1ncc(-c2cc3nc(-c4ccc(S(=O)(=O)N(C)C)cc4)[nH]c3c(F)c2F)c(Cl)n1 [Compound 28, 4-(6-(4-chloro-2-methylpyr-imid-5-yl)-4,5-difluoro-1H-benzo[d]imidazol-2-yl)-N,N-dimethylbenzenesulfonamide] — within 1.5-fold, 0.046 nM
- Cc1ncc(-c2cc3nc(-c4ccc(S(=O)(=O)N(C)C)cc4)[nH]c3cc2F)c(C)n1 [Compound 29, 4-(6-(2,4-dimethylpyrimid-5-yl)-5-fluoro-1H-benzo[d]imidazol-2-yl)-N,N-dimethyl-benzenesulfonamide] — 1.6-fold higher, 0.083 nM
- Cc1ncc(-c2cc3nc(-c4ccc(S(=O)(=O)N(C)C)cc4)[nH]c3cc2Cl)c(Cl)n1 [Compound 30, 4-(5-chloro-6-(4-chloro-2-methylpyrimid-5-yl)-1H-benzo [d]imidazol-2-yl)-N,N-dimeth-ylbenzenesulfonamide] — 2-fold higher, 0.1 nM
